According to US20260356841A1, “HETEROCYCLIC PYRIDINONE COMPOUNDS AS TRIGGERING RECEPTOR EXPRESSED ON MYELOID CELLS 2 AGONISTS AND METHODS OF USE” (Vigil Neuroscience, Inc., priority 2023, published 2026):

What follows are molecules tested against T1, human TREM2 (Homo sapiens, UniProt Q9NZC2) (assay: TREM2 agonist potency by cellular phosphorylation of Spleen Tyrosine Kinase (Syk), AlphaLisa, HEK293T-hTREM2 cells). Conditions: not given.
T1 construct: expressed in transfected cells; host or cells: HEK293T (HEK293T-hTREM2 cells)
T1 sequence (Q9NZC2 19-230): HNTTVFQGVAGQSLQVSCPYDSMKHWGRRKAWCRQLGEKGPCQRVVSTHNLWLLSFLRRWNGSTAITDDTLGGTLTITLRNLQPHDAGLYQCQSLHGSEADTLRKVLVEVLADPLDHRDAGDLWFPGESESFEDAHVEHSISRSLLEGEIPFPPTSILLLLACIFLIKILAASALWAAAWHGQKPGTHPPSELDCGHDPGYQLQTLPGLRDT
T1 sequence (O43914 22-113 partner): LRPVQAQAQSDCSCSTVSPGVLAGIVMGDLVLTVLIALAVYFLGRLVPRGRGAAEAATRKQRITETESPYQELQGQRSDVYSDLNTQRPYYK
Assay type: cell-based
Description: Measurement of TREM2 agonist potency was done using a HEK cell line expressing human TREM2 and DAP12 (HEK293T-hTREM2 cells). Binding of small molecules to, and activation of, TREM2 increases the phosphorylation of Syk. The resultant levels of Syk phosphorylation are measured using a commercial AlphaLisa reagent kit. To perform the assay, HEK-hTREM2 cells were plated at 14,000 cells per well in a 384 well plate, in 25 μL of complete growth media and incubated at 37° C., 5% CO2 for 20-24 hours.
Prior to the assay, test compounds were diluted in the 384 well plates in assay buffer and allowed to equilibrate for 30 minutes. Growth media was removed from cell plates by inversion on blotting paper, and 25 μL of test articles in assay buffer was added to cells. Cells were incubated for 45 minutes at room temperature. After 45 minutes, assay buffer was removed and 10 μL of lysis buffer was added. Plates were shaken for 20 minutes at 350 RPM at room temperature. After complete lysis, AlphaLisa reagents were added to the lysate, and fluorescence intensity was measured using a Perkin Elmer Envision plate reader. Intensities were used to generate a standard curve, and % activation was calculated. Curve fitting was performed using Prism v9 software, log (agonist) vs response-variable slope (four parameters), and EC50s were calculated from the curve fit.
The results presented in Table B have been generated with the in vitro assay described above. This assay may be used to test any of the compounds described herein to assess and characterize a compound's ability to act as an agonist of TREM2.

| EC50 | Structure (SMILES) |
| --- | --- |
| < 0.1 µM | [2H]C([2H])([2H])C([2H])(n1cc([C@H]2C[C@@H](c3nc(C45CC(C(F)(F)F)(C4)C5)c4nc(C)c(C)nc4n3)CCO2)ccc1=O)C([2H])([2H])[2H] [Example 88, 5-[(2R,4S)-4-[6,7-dimethyl-4-[3-(trifluoromethyl)-1-bicyclo[1.1.1]pentanyl]pteridin-2-yl]tetrahydropyran-2-yl]-1-[1,2,2,2-tetradeuterio-1-(trideuteriomethyl)ethyl]pyridin-2-one] |

Same assay, conditions: hTREM2 EC50 Data (HEK293 Cells); Syk phosphorylation, AlphaLisa; read-out: hTREM2 EC50

| Structure (SMILES) | EC50 |
| --- | --- |
| [2H]C([2H])([2H])n1cc([C@H]2C[C@@H](c3nc(C4CC45CC5(F)F)c4nc(C)c(C)nc4n3)CCO2)ccc1=O (stereo partly drawn) [Example 92, 5-((2R,4S)-4-(4-(4,4-difluorospiro[2.2]pentan-1-yl)-6,7-dimethylpteridin-2-yl)tetrahydro-2H-pyran-2-yl)-1-(methyl-d3)pyridin-2(1H)-one] | > 0.5 µM |
| Cc1nc2nc([C@H]3CCO[C@@H](c4ccc(=O)n(-c5cscn5)c4)C3)nc(C34CC(C(F)(F)F)(C3)C4)c2nc1C [Example 110, 5-((2R,4S)-4-(6,7-dimethyl-4-(3-(trifluoromethyl)bicyclo[1.1.1]pentan-1-yl)pteridin-2-yl)tetrahydro-2H-pyran-2-yl)-1-(thiazol-4-yl)pyridin-2(1H)-one] | < 0.1 µM |
| Cc1nc2nc([C@H]3CCO[C@@H](c4ccc(=O)n(-c5csc(C6CC6)c5)c4)C3)nc(C34CC(C(F)(F)F)(C3)C4)c2nc1C [Example 112] | < 0.1 µM |
| Cc1nc(-n2cc([C@H]3C[C@@H](c4nc(C56CC(C(F)(F)F)(C5)C6)c5nc(C)c(C)nc5n4)CCO3)ccc2=O)cs1 [Example 114, 5-((2R,4S)-4-(6,7-dimethyl-4-(3-(trifluoro-methyl)bicyclo[1.1.1]pentan-1-yl)pteridin-2-yl)tetrahydro-2H-pyran-2-yl)-1-(2-methyl-thiazol-4-yl)pyridin-2(1H)-one] | < 0.1 µM |
| Cc1nc2nc([C@H]3CCO[C@@H](c4ccc(=O)n(-c5cnco5)c4)C3)nc(C34CC(C(F)(F)F)(C3)C4)c2nc1C [Example 116, 5-((2R,4S)-4-(6,7-dimethyl-4-(3-(trifluoromethyl)-bicyclo-[1.1.1]pentan-1-yl)pteridin-2-yl)tetrahydro-2H-pyran-2-yl)-1-(oxazol-5-yl)pyridin-2(1H)-one] | < 0.1 µM |
| Cc1nc2nc([C@H]3CCO[C@@H](c4ccc(=O)n(C56CC(C5)C6)c4)C3)nc(C34CC(C(F)(F)F)(C3)C4)c2nc1C [Example 120, 1-(1-bicyclo[1.1.1]pentanyl)-5-[(2R,4S)-4-[6,7-dimethyl-4-[3-(trifluoromethyl)-1-bicyclo-[1.1.1]pentanyl]pteridin-2-yl]tetrahydropyran-2-yl]pyridin-2-one] | < 0.1 µM |
| Cc1nc2nc([C@@H]3CCO[C@H](c4ccc(=O)n(C56CC(C5)C6)c4)C3)nc(C34CC(C(F)(F)F)(C3)C4)c2nc1C [Example 121, 1-(1-bicyclo[1.1.1]pentanyl)-5-[(2S,4R)-4-[6,7-dimethyl-4-[3-(trifluoromethyl)-1-bicyclo[1.1.1]-pentanyl]pteridin-2-yl]tetrahydropyran-2-yl]pyridine-2-one] | < 0.1 µM |
| Cc1cnc2c(C34CC(C(F)(F)F)(C3)C4)nc([C@H]3CCO[C@@H](c4ccc(=O)n(C)c4)C3)nc2n1 [Example 123, 1-methyl-5-((2R,4S)-4-(7-methyl-4-(3-(trifluoromethyl)bicyclo-[1.1.1]pentan-1-yl)pteridin-2-yl)tetrahydro-2H-pyran-2-yl)pyridin-2(1H)-one] | < 0.1 µM |
| Cc1cnc2c(C34CC(C(F)(F)F)(C3)C4)nc([C@@H]3CCO[C@H](c4ccc(=O)n(C)c4)C3)nc2n1 [Example 124, 1-methyl-5-((2S,4R)-4-(7-methyl-4-(3-(trifluoromethyl)bicyclo[1.1.1]pentan-1-yl)pteridin-2-yl)tetrahydro-2H-pyran-2-yl)pyridin-2(1H)-one] | 0.1 to 0.5 µM |
| Cc1nc2nc([C@H]3CCO[C@@H](c4ccc(=O)n(C)c4)C3)nc(-c3ccc(C(F)(F)F)cc3F)c2nc1C(F)F [Example 126, 5-[(2R,4S)-4-[6-(difluoromethyl)-4-[2-fluoro-4-(trifluoromethyl)phenyl]-7-methyl-pteridin-2-yl]tetrahydropyran-2-yl]-1-methyl-pyridin-2-one] | 0.1 to 0.5 µM |

Next, values leading:

| EC50 | Structure (SMILES) |
| --- | --- |
| < 0.1 µM | Cc1nc2nc([C@@H]3CCO[C@H](c4ccc(=O)n(C(C)C)c4)C3)nc(C34CC(C(F)(F)F)(C3)C4)c2nc1C [Example 78, 1-isopropyl-5-[(2S,4R)-4-[6,7-dimethyl-4-[3-(trifluoromethyl)-1-bicyclo[1.1.1]-pentanyl]pteridin-2-yl]tetrahydropyran-2-yl]pyridin-2-one] |
| < 0.1 µM | CCn1cc([C@H]2C[C@@H](c3nc(C45CC(C(F)(F)F)(C4)C5)c4nc(C)c(C)nc4n3)CCO2)ccc1=O [Example 80, 5-[(2R,4S)-4-[6,7-dimethyl-4-[3-(trifluoromethyl)-1-bicyclo[1.1.1]pentanyl]pteridin-2-yl]tetrahydropyran-2-yl]-1-ethyl-pyridin-2-one] |
| < 0.1 µM | COCCn1cc([C@H]2C[C@@H](c3nc(C45CC(C(F)(F)F)(C4)C5)c4nc(C)c(C)nc4n3)CCO2)ccc1=O [Example 82, 5-[(2R,4S)-4-[6,7-dimethyl-4-[3-(trifluoromethyl)-1-bicyclo[1.1.1]pentanyl]pteridin-2-yl]tetrahydropyran-2-yl]-1-(2-methoxyethyl)pyridin-2-one] |
| < 0.1 µM | Cc1nc2nc([C@H]3CCO[C@@H](c4ccc(=O)n(CCO)c4)C3)nc(C34CC(C(F)(F)F)(C3)C4)c2nc1C [Example 84, 5-[(2R,4S)-4-[6,7-dimethyl-4-[3-(trifluoromethyl)-1-bicyclo[1.1.1]pentanyl]pteridin-2-yl]tetrahydropyran-2-yl]-1-(2-hydroxyethyl)pyridin-2-one] |
| < 0.1 µM | Cc1nc2nc([C@H]3CCO[C@@H](c4ccc(=O)n(CC#N)c4)C3)nc(C34CC(C(F)(F)F)(C3)C4)c2nc1C [Example 86, 2-[5-[(2R,4S)-4-[6,7-dimethyl-4-[3-(trifluoromethyl)-1-bicyclo[1.1.1]pentanyl]pteridin-2-yl]tetrahydropyran-2-yl]-2-oxo-1-pyridyl]acetonitrile] |
| < 0.1 µM | Cc1nc2nc([C@H]3CCO[C@@H](c4ccc(=O)n(C(F)F)c4)C3)nc(C34CC(C(F)(F)F)(C3)C4)c2nc1C [Example 90] |
| < 0.1 µM | Cc1nc2nc([C@H]3CCO[C@@H](c4ccc(=O)n(C5CCC5)c4)C3)nc(C34CC(C(F)(F)F)(C3)C4)c2nc1C [Example 94, 1-cyclobutyl-5-[(2R,4S)-4-[6,7-dimethyl-4-[3-(trifluoromethyl)-1 bicyclo[1.1.1]pentanyl]pteridin-2-yl]tetrahydropyran-2-yl]pyridin-2-one] |
| < 0.1 µM | Cc1nc2nc([C@H]3CCO[C@@H](c4ccc(=O)n(CC5(C#N)CC5)c4)C3)nc(C34CC(C(F)(F)F)(C3)C4)c2nc1C [Example 98, 1-[[5-[(2R,4S)-4-[6,7-dimethyl-4-[3-(trifluoromethyl)-1-bicyclo[1.1.1]pentanyl]pteridin-2-yl]tetrahydropyran-2-yl]-2-oxo-1-pyridyl]methyl]cyclopropanecarbonitrile] |
| < 0.1 µM | Cc1nc2nc([C@H]3CCO[C@@H](c4ccc(=O)n(CC5(C)CC5)c4)C3)nc(C34CC(C(F)(F)F)(C3)C4)c2nc1C [Example 100, 5-[(2R,4S)-4-[6,7-dimethyl-4-[3-(trifluoromethyl)-1-bicyclo[1.1.1]pentanyl]pteridin-2-yl]tetrahydropyran-2-yl]-1-[(1-methylcyclopropyl)methyl]pyridin-2-one] |
| < 0.1 µM | Cc1nc2nc([C@H]3C[C@@H](C)O[C@@H](c4ccc(=O)n(C5CC5)c4)C3)nc(C34CC(C(F)(F)F)(C3)C4)c2nc1C [Example 102, 1-cyclopropyl-5-[(2R,4S,6R)-4-[6,7-dimethyl-4-[3-(trifluoromethyl)-1-bicyclo[1.1.1]pentanyl]pteridin-2-yl]-6-methyl-tetrahydropyran-2-yl]pyridin-2-one] |
| < 0.1 µM | Cc1cc(-n2cc([C@H]3CC(c4nc(C56CC(C(F)(F)F)(C5)C6)c5nc(C)c(C)nc5n4)CCO3)ccc2=O)cs1 (stereo partly drawn) [Example 104, 5-((2R)-4-(6,7-dimethyl-4-(3-(trifluoromethyl)bicyclo-[1.1.1]pentan-1-yl)pteridin-2-yl)tetrahydro-2H-pyran-2-yl)-1-(5-methylthiophen-3-yl)pyridin-2 (1H)-one] |
| < 0.1 µM | Cc1cc(-n2cc([C@H]3C[C@@H](c4nc(C56CC(C(F)(F)F)(C5)C6)c5nc(C)c(C)nc5n4)CCO3)ccc2=O)cs1 [Example 105, 5-((2R,4S)-4-(6,7-dimethyl-4-(3-(trifluoromethyl)bicyclo[1.1.1]pentan-1-yl)pteridin-2-yl)tetrahydro-2H-pyran-2-yl)-1-(5-methylthiophen-3-yl)pyridin-2 (1H)-one] |
| < 0.1 µM | Cc1nc2nc([C@H]3CCO[C@@H](c4ccc(=O)n(C5COC5)c4)C3)nc(C34CC(C(F)(F)F)(C3)C4)c2nc1C [Example 107, 5-[(2R,4S)-4-[6,7-dimethyl-4-[3-(trifluoromethyl)-1-bicyclo[1.1.1]pentanyl]pteridin-2-yl]tetrahydropyran-2-yl]-1-(oxetan-3-yl)pyridin-2-one] |
